# Data: patent US20240132464A1, “HETEROCYCLIC COMPOUNDS AS E3 LIGASE INHIBITORS” (Accutar Biotechnology Inc., priority 2022, published 2024)
# Target: T1, GID4 (Uniprot ID: Q81VV7, residues 124-289) (Homo sapiens, UniProt Q8IVV7)
# T1 construct: GID4 (Uniprot ID: Q81VV7, residues 124-289)
# T1 sequence (Q8IVV7 124-289): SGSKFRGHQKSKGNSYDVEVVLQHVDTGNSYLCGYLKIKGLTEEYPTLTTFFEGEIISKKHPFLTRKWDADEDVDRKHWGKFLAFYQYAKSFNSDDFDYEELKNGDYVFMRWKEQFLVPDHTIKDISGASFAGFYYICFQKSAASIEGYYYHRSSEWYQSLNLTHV
# Experiment: GID4 competitive binding assay (AlphaScreen, GID4/degron peptide PGLW)
# Conditions: 24 nM GID4, 48 nM biotinylated degron peptide PGLW, 4° C., read-out: IC50 (Inhibition of GID4/Degron binding by test compounds)
# Procedure: GID4 Competitive Binding Assay
# GID4 binding affinity of compounds disclosed herein was measured by monitoring the interaction of GID4 with its degron peptide (PGLW) in the presence of the test compounds. A truncated version of GID4 (Uniprot ID: Q81VV7, residues 124-289) with a 6*His at its C-terminus was used in this assay. Tetrapeptide, PGLW, was synthesized and tagged with an additional lysine labeled with biotin at its sidechain.
# GID4 competitive binding assays were performed in a 384-well plate at 4° C. in a 20 μL reaction volume. Briefly, 24 nM GID4 (final concentration) proteins were pre-incubated with 48 nM biotinylated degron peptide (final concentration) in an assay buffer containing 20 mM HEPES, pH 7.5, 100 mM NaCl, 1 mM DTT, 0.1% Tween-20, and 0.05% BSA in the presence of the test compound in 2% DMSO (final concentration) at various concentrations for 2 h. 5 ug/ml Streptavidin ALphaScreen donor beads and 5 ug/ml nickel chelate (Ni-NTA) ALphaScreen acceptor beads (PerkinElmer, 6760619C) (final concentrations) were then added to the mixture. After an incubation of 1 h at 4° C., the fluorescent signals were obtained on the EnVision® 2105 Multilabel Plate Reader (PerkinElmer).
# Raw ALphaScreen data were converted to a percentage of inhibition (relative to DMSO) using the following equations: […]
# For a given test compound concentration X:
# Signal (X)=Signal (GID4 & peptide & compound)−Signal (GID4 & buffer & compound)
# Percentage of inhibition at concentration X=[1−Signal(X)/Signal (DMSO)]*100% b)
# The IC50 values were determined by nonlinear regression of plots of [inhibitor] vs. percentage of inhibition with variable slope.
# Table 3 summarizes the inhibition of binding between GID4 and degron peptide with compounds of the present disclosure. Compounds were ranked into bins as follows for IC50: A indicates <500 nM; B indicates 500 nM-5000 nM; C indicates >5000 nM.
row,SMILES,IC50 [nM]
1,"CNc1cc(N2CCO[C@@H](c3ccccc3)C2)nc(N)n1 (racemic) [Compound 109, (S/R)-N4-methyl-6-(2-phenylmorpholino)pyrimidine-2,4-diamine]",500 to 5000
2,"CC(C)c1cc(N2CC[C@@H](F)[C@@H](c3ccccc3Br)C2)nc(N)n1 [Compound 221, 4-((3S,4R)-3-(2-bromophenyl)-4-fluoropiperidin-1-yl)-6-isopropylpyrimidin-2-amine]",< 500
3,"CC(C)c1cc(N2CCNC(c3cc(F)c(F)cc3Br)C2)nc(N)n1 (centres unmarked) [Compound 170, 4-(3-(2-bromo-4,5-difluorophenyl)piperazin-1-yl)-6-isopropylpyrimidin-2-amine]",500 to 5000
4,"Nc1cc(N2CCOC(c3ccccc3C(F)(F)F)C2)nc(N)n1 (centres unmarked) [Compound 29, 6-(2-(2-(trifluoromethyl)phenyl)morpholino)pyrimidine-2,4-diamine]",< 500
5,"CCOc1ccc(Br)c(C2CN(c3cc(N)nc(N)n3)CCN2)c1 (single isomer, unassigned) [Compound 23, (R/S)-6-(3-(2-bromo-5-ethoxyphenyl)piperazin-1-yl)pyrimidine-2,4-diamine]",500 to 5000
6,"CNc1cc(N2CCC[C@@H](c3ccccc3Br)C2)nc(N)n1 (stereo in doubt) [Compound 87, (S/R)-6-(3-(2-bromophenyl)piperidin-1-yl)-N4-methylpyrimidine-2,4-diamine]",< 500
7,"Nc1nc(C2CC2)cc(N2CCN[C@@H](c3ccccc3Br)C2)n1 (stereo in doubt) [Compound 133, (S/R)-4-(3-(2-bromophenyl)piperazin-1-yl)-6-cyclopropylpyrimidin-2-amine]",500 to 5000
8,"Nc1nc(N2CCCC(c3ccn[nH]3)C2)c2[nH]ccc2n1 (centres unmarked) [Compound 206, 4-(3-(1H-pyrazol-5-yl)piperidin-1-yl)-5H-pyrrolo[3,2-d]pyrimidin-2-amine]",> 5000
9,"CC(C)c1nc(N)cc(N2CCN(C)C(c3ccccc3Br)C2)n1 (centres unmarked) [Compound 74, 6-(3-(2-bromophenyl)-4-methylpiperazin-1-yl)-2-isopropylpyrimidin-4-amine]",500 to 5000
10,"CC(C)c1cc(N2CCNC(c3cc(F)ccc3Br)C2)nc(N)n1 (centres unmarked) [Compound 174, 4-(3-(2-bromo-5-fluorophenyl)piperazin-1-yl)-6-isopropylpyrimidin-2-amine]",500 to 5000
11,"Nc1nc(NC2CC2)nc(N2CCN[C@H](c3ccccc3Br)C2)n1 (stereo in doubt) [Compound 64, (R/S)-6-(3-(2-bromophenyl)piperazin-1-yl)-N2-cyclopropyl-1,3,5-triazine-2,4-diamine]",> 5000
12,"CC(C)c1nc(N)cc(N2CCNC(c3ccccc3Br)C2)n1 (single isomer, unassigned) [Compound 76, (R/S)-6-(3-(2-bromophenyl)piperazin-1-yl)-2-isopropylpyrimidin-4-amine]",< 500
13,"Nc1nc(NCC2CC2)cc(N2CCOC(c3ccccc3Br)C2)n1 (single isomer, unassigned) [Compound 78, R or S-6-(2-(2-bromophenyl)morpholino)-N^4-(cyclopropylmethyl)pyrimidine-2,4-diamine]",< 500
14,"Nc1nc(NC2CC2)cc(N2CCO[C@@H](c3ccccc3Br)C2)n1 (stereo in doubt) [Compound 98, (S/R)-6-(2-(2-bromophenyl)morpholino)-N4-cyclopropylpyrimidine-2,4-diamine]",< 500

# More lines, now with the values ahead:
row,IC50 [nM],SMILES
1,> 5000,"CC(C)c1cc(N2CCCC(c3cnc4ccccn34)C2)nc(NCCO)n1 (centres unmarked) [Compound 127, 2-((4-(3-(imidazo[1,2-a]pyridin-3-yl)piperidin-1-yl)-6-isopropylpyrimidin-2-yl)amino)ethan-1-ol]"
2,< 500,"CN(C)CCNC(=O)c1ccc(Br)c(C2CN(c3cc(N)nc(N)n3)CCN2)c1 (centres unmarked) [Compound 9, 4-bromo-3-(4-(2,6-diaminopyrimidin-4-yl)piperazin-2-yl)-N-(2-(dimethylamino)ethyl)benzamide]"
3,> 5000,"Nc1nc2c(c(N3CCCC(c4cnc5ccccn45)C3)n1)CCCN2 (centres unmarked) [Compound 88, 4-(3-(imidazo[1,2-a]pyridin-3-yl)piperidin-1-yl)-5,6,7,8-tetrahydropyrido[2,3-d]pyrimidin-2-amine]"
4,> 5000,"Nc1nccc2ccc(N3CCC(C(=O)N4CCCC4)C3)cc12 (centres unmarked) [Compound 354, (1-(1-aminoisoquinolin-7-yl)pyrrolidin-3-yl)(pyrrolidin-1-yl)methanone]"
5,< 500,"CN(C)CCCNC(=O)c1ncc(-c2cc(O)c3ncccc3c2)cn1 [Compound 271, N-(3-(dimethylamino)propyl)-5-(8-hydroxyquinolin-6-yl)pyrimidine-2-carboxamide]"
6,500 to 5000,"CC(C)c1cc(N(C)CCc2c[nH]c3ccccc23)nc(N)n1 [Compound 179, N4-(2-(1H-indol-3-yl)ethyl)-6-isopropyl-N4-methylpyrimidine-2,4-diamine]"
7,500 to 5000,"CC(C)c1cc(N2CCN[C@@H](c3cnc4ccccn34)C2)c2nc[nH]c2n1 (stereo in doubt) [Compound 368, (R/S)-7-(3-(imidazo[1,2-a]pyridin-3-yl)piperazin-1-yl)-5-isopropyl-3H-imidazo[4,5-b]pyridine]"
8,500 to 5000,"Nc1nc(C2CC2)cc(N2CCNC(c3cnc4ccccn34)C2)n1 (single isomer, unassigned) [Compound 103, (S/R)-4-cyclopropyl-6-(3-(imidazo[1,2-a]pyridin-3-yl)piperazin-1-yl)pyrimidin-2-amine]"
9,< 500,"CNCCCNC(=O)c1ccc(-c2cc(O)c3ncccc3c2)cc1 [Compound 303, 4-(8-hydroxyquinolin-6-yl)-N-(3-(methylamino)propyl)benzamide]"
10,500 to 5000,"CNc1cc(N2CCCC(c3cnc4ccccn34)C2)nc(NC)n1 (racemic) [Compound 123, (S/R)-6-(3-(imidazo[1,2-a]pyridin-3-yl)piperidin-1-yl)-N2,N4-dimethylpyrimidine-2,4-diamine]"
11,> 5000,"Nc1cc(N2CCOC(c3cnc4ccccn34)C2)nc(N)n1 (racemic) [Compound 136, (R/S)-6-(2-(imidazo[1,2-a]pyridin-3-yl)morpholino)pyrimidine-2,4-diamine]"
12,< 500,"CC(C)c1cc(N2CCCC(c3ncn4ccccc34)C2)nc(N)n1 (centres unmarked) [Compound 235, 4-(3-(imidazo[1,5-a]pyridin-1-yl)piperidin-1-yl)-6-isopropylpyrimidin-2-amine]"
13,> 5000,"CC(C)c1cc(N2CCNC(c3ccccc3)C2)nc(N)n1 (centres unmarked) [Compound 165, 4-isopropyl-6-(3-phenylpiperazin-1-yl)pyrimidin-2-amine]"
14,< 500,"CN(C)[C@H]1C[C@@H](NC(=O)c2csc(-c3cc(O)c4ncccc4c3)c2)C1 [Compound 264, N-(cis-3-(dimethylamino)cyclobutyl)-5-(8-hydroxyquinolin-6-yl)thiophene-3-carboxamide]"
15,< 500,"CN(C)CCCNC(=O)c1cnc(-c2cc(O)c3ncccc3c2)nc1 [Compound 282, N-(3-(dimethylamino)propyl)-2-(8-hydroxyquinolin-6-yl)pyrimidine-5-carboxamide]"
16,< 500,"CN(C)C1CCN(C(=O)c2n[nH]c3ccc(-c4ccc5ccnc(N)c5c4)cc23)CC1 [Compound 335, (5-(1-aminoisoquinolin-7-yl)-1H-indazol-3-yl)(4-(dimethylamino)piperidin-1-yl)methanone]"
17,< 500,"CN1CCN(c2cc(NCC3CC3)nc(N)n2)CC1c1ccccc1Br (single isomer, unassigned) [Compound 99, (R/S)-6-(3-(2-bromophenyl)-4-methylpiperazin-1-yl)-N4-(cyclopropylmethyl)pyrimidine-2,4-diamine]"
18,> 5000,"CC(C)c1cc(N2CCCC(O)(c3cnc4ccccn34)C2)nc(N)n1 (centres unmarked) [Compound 243, 1-(2-amino-6-isopropylpyrimidin-4-yl)-3-(imidazo[1,2-a]pyridin-3-yl)piperidin-3-ol]"
19,< 500,"CC(C)c1cc(N2CCNC(c3cnc4ccccn34)C2)c2cc[nH]c2n1 (racemic) [Compound 371, (R/S)-3-(4-(6-isopropyl-1H-pyrrolo[2,3-b]pyridin-4-yl)piperazin-2-yl)imidazo[1,2-a]pyridine]"
20,< 500,"CN(C)CCNC(=O)c1csc(-c2cc(O)c3ncccc3c2)c1 [Compound 268, N-(2-(dimethylamino)ethyl)-5-(8-hydroxyquinolin-6-yl)thiophene-3-carboxamide]"
21,> 5000,"CNc1cc(N2CCN[C@@H](c3ccccc3Br)C2)nc(NC)n1 (stereo in doubt) [Compound 130, (S/R)-6-(3-(2-bromophenyl)piperazin-1-yl)-N2,N4-dimethylpyrimidine-2,4-diamine]"
